The record followed here is ChEMBL document CHEMBL4476867, “Hydroxy formamide derivatives and their use” (2016).

Assay [1] has as its target T1, Bone morphogenetic protein 1 (Homo sapiens, UniProt P13497).
T1 sequence (P13497 whole entry): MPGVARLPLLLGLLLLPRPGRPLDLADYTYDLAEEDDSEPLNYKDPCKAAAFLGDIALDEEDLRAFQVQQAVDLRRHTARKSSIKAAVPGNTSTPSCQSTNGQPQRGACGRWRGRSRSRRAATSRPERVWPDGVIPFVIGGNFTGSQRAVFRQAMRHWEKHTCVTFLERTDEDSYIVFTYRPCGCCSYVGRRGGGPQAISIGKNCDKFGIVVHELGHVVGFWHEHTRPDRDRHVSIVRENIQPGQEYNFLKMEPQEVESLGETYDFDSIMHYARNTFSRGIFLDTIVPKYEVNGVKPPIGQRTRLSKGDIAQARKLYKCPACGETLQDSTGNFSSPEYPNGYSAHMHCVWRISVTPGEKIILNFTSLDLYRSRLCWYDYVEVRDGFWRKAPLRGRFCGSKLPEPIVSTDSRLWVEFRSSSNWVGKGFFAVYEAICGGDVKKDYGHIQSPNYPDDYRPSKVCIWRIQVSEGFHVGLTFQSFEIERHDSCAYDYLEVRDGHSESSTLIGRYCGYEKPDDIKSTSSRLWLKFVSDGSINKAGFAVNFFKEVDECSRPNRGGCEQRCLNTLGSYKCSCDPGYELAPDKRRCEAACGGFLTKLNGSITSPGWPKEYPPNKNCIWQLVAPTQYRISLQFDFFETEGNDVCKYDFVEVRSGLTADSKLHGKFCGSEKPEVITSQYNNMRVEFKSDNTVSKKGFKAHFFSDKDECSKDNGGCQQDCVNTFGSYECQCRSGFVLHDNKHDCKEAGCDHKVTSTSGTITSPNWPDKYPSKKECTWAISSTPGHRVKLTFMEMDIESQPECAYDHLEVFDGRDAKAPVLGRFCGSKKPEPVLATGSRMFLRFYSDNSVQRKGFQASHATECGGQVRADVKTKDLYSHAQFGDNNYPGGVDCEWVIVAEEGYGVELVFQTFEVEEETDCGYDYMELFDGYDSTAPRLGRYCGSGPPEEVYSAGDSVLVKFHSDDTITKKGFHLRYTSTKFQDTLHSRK
Description: Inhibition of C-terminal FLAG-6x-His epitope tagged and N-terminal human RAGE signal sequence tagged human BMP1 (23 to 721 amino acids) expressed in CHO-E1 cells pre-incubated for 10 mins before promyostatin peptide substrate addition and measured after 60 mins using 0.5 nM BMP1 by FRET based assay. Format: cell-based.

Assay [2] can be described thus: Reduction in mature collagen deposition levels in human cardiac fibroblasts incubated for 24 to 48 hrs by immunostaining based assay. It is filed as functional. The procedure, abridged:
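Human cardiac fibroblasts in 96-well plates were treated in ficoll crowding EMEM with 100 μM ascorbic acid and under 0.3% DMSO, for 24 to 48 hr at 37° C. Cells were fixed in −20° C methanol for 10 min. They were stained with anti-mature collagen I antibody, Alexa647 secondary antibody and Hoechst, then imaged on an Operetta system. Collagen intensity was normalised to nuclei count per field, and IC50 was fitted in GraphPad Prism.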

The next assay addresses T2, Tolloid-like protein 2 (Homo sapiens, UniProt Q9Y6L7).
T2 sequence (Q9Y6L7 whole entry): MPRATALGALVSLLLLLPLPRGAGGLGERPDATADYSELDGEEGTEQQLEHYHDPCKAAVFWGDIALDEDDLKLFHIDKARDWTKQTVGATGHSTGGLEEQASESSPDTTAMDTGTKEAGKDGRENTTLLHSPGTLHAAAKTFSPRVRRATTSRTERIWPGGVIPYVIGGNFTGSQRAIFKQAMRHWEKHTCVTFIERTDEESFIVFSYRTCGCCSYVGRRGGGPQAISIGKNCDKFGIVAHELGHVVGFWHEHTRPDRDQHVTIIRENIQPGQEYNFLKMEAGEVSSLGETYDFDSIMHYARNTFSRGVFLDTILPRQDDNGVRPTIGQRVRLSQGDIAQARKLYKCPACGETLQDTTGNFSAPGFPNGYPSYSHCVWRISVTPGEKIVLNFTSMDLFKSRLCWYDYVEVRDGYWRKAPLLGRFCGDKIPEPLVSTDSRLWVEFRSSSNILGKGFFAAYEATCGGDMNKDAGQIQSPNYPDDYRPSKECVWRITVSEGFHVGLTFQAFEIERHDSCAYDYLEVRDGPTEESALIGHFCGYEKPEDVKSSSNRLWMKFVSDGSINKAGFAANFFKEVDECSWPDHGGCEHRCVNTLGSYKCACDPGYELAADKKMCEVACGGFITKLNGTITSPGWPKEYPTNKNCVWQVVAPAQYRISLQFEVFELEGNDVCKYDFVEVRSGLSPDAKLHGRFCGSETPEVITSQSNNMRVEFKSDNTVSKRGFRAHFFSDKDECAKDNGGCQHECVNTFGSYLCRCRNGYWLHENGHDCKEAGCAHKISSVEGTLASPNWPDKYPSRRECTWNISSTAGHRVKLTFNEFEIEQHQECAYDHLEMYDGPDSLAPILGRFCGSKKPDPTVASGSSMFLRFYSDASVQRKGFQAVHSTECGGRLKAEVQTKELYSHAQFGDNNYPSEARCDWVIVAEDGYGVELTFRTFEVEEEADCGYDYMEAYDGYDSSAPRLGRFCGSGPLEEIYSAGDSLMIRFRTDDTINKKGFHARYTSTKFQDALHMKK
Kind of assay: Inhibition of C-terminal Avi-6x-His epitope tagged and N-terminal human RAGE signal sequence tagged recombinant human TLL2 (26 to 1015 amino acids) expressed in CHOE1A cells incubated for 60 mins with promyostatin peptide substrate by FRET based assay. It is filed as cell-based.

Assay [3] can be described thus: Reduction in PICP levels in human cardiac fibroblasts incubated for 24 to 48 hrs by ELISA. It is filed as functional. A digest of the protocol: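 Human cardiac fibroblasts (passage 6 or below) were seeded at 10,000 to 15,000 cells per well in 96-well plates. The next day they were treated in ficoll crowding EMEM with 100 μM ascorbic acid and under 0.3% DMSO, for 24 to 48 hr at 37° C. Procollagen I C-terminal propeptide in the medium was measured with a Quidel ELISA. IC50 came from fitting levels relative to untreated controls to a log(inhibitor)-response equation in GraphPad Prism.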
A general note: An ELISA detects its analyte on a solid surface through an enzyme-linked reagent.

A further assay has as its target Tolloid-like protein 1 (Homo sapiens, UniProt O43897, I156V/N221S/V284A). Description: Inhibition of recombinant human TLL1 I156V/N221S/V284A mutant expressed in CHOE1A cells pre-incubated for 10 mins before promyostatin peptide substrate addition and measured after 60 mins by FRET based assay. Format: cell-based.
The target of assay [4] is T1, Bone morphogenetic protein 1. Description: Inhibition of C-terminal FLAG-6x-His epitope tagged and N-terminal human RAGE signal sequence tagged human BMP1 (23 to 721 amino acids) expressed in CHO-E1 cells pre-incubated for 10 mins before promyostatin peptide substrate addition and measured after 30 mins using 50 nM BMP1 by FRET based assay. It is filed as cell-based.

Usually IC50 stands for the concentration that inhibits the measured activity by half.

Tolloid-like protein 1, sequence (O43897 148-1013 I156V/N221S/V284A limits assumed): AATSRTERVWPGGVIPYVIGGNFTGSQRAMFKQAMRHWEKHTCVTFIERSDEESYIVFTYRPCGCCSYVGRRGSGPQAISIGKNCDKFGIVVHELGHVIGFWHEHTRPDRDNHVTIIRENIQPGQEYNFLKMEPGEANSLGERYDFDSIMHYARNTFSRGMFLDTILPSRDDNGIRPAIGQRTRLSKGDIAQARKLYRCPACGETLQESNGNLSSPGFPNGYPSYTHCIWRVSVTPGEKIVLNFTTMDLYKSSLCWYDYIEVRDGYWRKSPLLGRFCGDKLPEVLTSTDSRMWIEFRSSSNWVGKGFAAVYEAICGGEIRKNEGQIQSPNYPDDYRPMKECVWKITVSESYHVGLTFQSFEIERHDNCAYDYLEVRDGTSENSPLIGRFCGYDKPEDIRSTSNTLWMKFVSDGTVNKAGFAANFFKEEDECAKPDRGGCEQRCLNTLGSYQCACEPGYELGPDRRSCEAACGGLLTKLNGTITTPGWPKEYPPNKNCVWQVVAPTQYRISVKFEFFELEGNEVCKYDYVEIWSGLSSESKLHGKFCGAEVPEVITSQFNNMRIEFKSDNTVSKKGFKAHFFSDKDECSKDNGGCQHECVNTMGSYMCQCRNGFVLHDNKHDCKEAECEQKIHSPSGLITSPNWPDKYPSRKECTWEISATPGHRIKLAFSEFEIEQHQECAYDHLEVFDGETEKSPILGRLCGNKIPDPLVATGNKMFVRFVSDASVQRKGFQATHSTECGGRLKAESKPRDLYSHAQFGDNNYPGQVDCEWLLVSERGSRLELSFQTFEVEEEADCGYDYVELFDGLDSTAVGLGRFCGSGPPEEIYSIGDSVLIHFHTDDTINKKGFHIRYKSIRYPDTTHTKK

On to `CCCCC[C@@H](C(=O)NCNC(=O)c1ccc(-c2ccc(P(=O)(O)O)c(OCC)c2)o1)[C@@H](CC)N(O)C=O`, for which the IC50 in assay [1] is < 0.126 µM; in assay [2], < 1 µM; at Tolloid-like protein 2, < 0.794 µM; in assay [3] it was < 3.98 µM; at Tolloid-like protein 1 it was < 0.398 µM; in assay [4] it was < 0.2 µM.

On to `CCCCC[C@@H](C(=O)NCNC(=O)c1ccc(-c2cc(OCC)cc(P(=O)(O)O)c2)o1)[C@@H](CC)N(O)C=O`, for which the IC50 was < 0.126 µM in assay [1]; < 1 µM in assay [2]; < 0.794 µM at Tolloid-like protein 2; < 3.98 µM in assay [3]; < 0.398 µM on Tolloid-like protein 1; < 0.2 µM in assay [4].

For `CCOc1cc(C(=O)N(CC(=O)O)CC(=O)O)cc(-c2ccc(C(=O)NCNC(=O)[C@H](CCc3ccc(F)cc3F)[C@@H](CC)N(O)C=O)o2)c1`, the IC50 in assay [1] was < 0.126 µM; in assay [2] it was < 1 µM; on Tolloid-like protein 2 it was < 0.794 µM; in assay [3], < 3.98 µM; at Tolloid-like protein 1, < 0.398 µM; in assay [4] it was < 0.2 µM.

Turning to `CCCCC[C@@H](C(=O)NCNC(=O)c1ccc(-c2ccc(C(=O)N[C@@H](CC(=O)O)C(=O)O)c(OCC(=O)O)c2)o1)[C@@H](CC)N(O)C=O`, the concentration for half-maximal inhibition (IC50) was < 0.126 µM in assay [1]; < 1 µM in assay [2]; < 0.794 µM at Tolloid-like protein 2; < 3.98 µM in assay [3]; < 0.398 µM on Tolloid-like protein 1; < 0.2 µM in assay [4].

As to `CCCCC[C@@H](C(=O)NCNC(=O)c1ccc(-c2cc(CP(=O)(O)O)cc(OCC)c2)o1)[C@@H](CC)N(O)C=O`, the half-inhibitory concentration (IC50) was < 0.126 µM in assay [1]; < 1 µM in assay [2]; < 0.794 µM on Tolloid-like protein 2; < 3.98 µM in assay [3]; < 0.398 µM at Tolloid-like protein 1; < 0.2 µM in assay [4].

`CCCCC[C@@H](C(=O)NCNC(=O)c1ccc(-c2cc(O)cc(C(=O)O)c2)o1)[C@@H](CC)N(O)C=O`: the IC50 in assay [1] is < 0.126 µM; in assay [2], < 1 µM; on Tolloid-like protein 2 it was < 0.794 µM; in assay [3] it was < 3.98 µM; on Tolloid-like protein 1, < 0.398 µM; in assay [4], < 0.2 µM.

Turning to `CCCCC[C@@H](C(=O)NCNC(=O)c1ccc(-c2cc(OCC)c(F)c(C(=O)O)c2)o1)[C@@H](CC)N(O)C=O`, the concentration for half-maximal inhibition (IC50) in assay [1] is < 0.126 µM; in assay [2], < 1 µM; at Tolloid-like protein 2, < 0.794 µM; in assay [3], < 3.98 µM; on Tolloid-like protein 1, < 0.398 µM; in assay [4], < 0.2 µM.

As for `CCCCC[C@@H](C(=O)NCNC(=O)c1ccc(-c2cc(OCC)cc(C(=O)N[C@@H](CCC(=O)O)C(=O)O)c2)o1)[C@@H](CC)N(O)C=O`, the IC50 is < 0.126 µM in assay [1]; < 1 µM in assay [2]; < 0.794 µM at Tolloid-like protein 2; < 3.98 µM in assay [3]; < 0.398 µM at Tolloid-like protein 1; < 0.2 µM in assay [4].

Turning to `CCCCC[C@@H](C(=O)NCNC(=O)c1ccc(-c2cc(OCC(=O)O)cc(C(=O)O)c2)o1)[C@@H](CC)N(O)C=O`, the IC50 in assay [1] was < 0.126 µM; in assay [2] it was < 1 µM; at Tolloid-like protein 2, < 0.794 µM; in assay [3], < 3.98 µM; on Tolloid-like protein 1, < 0.398 µM; in assay [4], < 0.2 µM.

Regarding `CCOc1cc(-c2ccc(C(=O)NCNC(=O)[C@H](CCc3ccccc3)[C@@H](CC)N(O)C=O)o2)ccc1C(=O)N[C@@H](CC(=O)O)C(=O)O`, the IC50 was < 0.126 µM in assay [1]; < 1 µM in assay [2]; < 0.794 µM on Tolloid-like protein 2; < 3.98 µM in assay [3]; < 0.398 µM at Tolloid-like protein 1; < 0.2 µM in assay [4].

On to `CCOc1cc(-c2ccc(C(=O)NCNC(=O)[C@H](CCc3ccccc3)[C@@H](CC)N(O)C=O)o2)ccc1C(=O)N(CC(=O)O)CC(=O)O`, for which the half-maximal inhibitory concentration (IC50) was < 0.126 µM in assay [1]; < 1 µM in assay [2]; < 0.794 µM at Tolloid-like protein 2; < 3.98 µM in assay [3]; < 0.398 µM at Tolloid-like protein 1; < 0.2 µM in assay [4].

`CCCCC[C@@H](C(=O)NCNC(=O)c1ccc(-c2cc(OCC)cc(C(=O)O)c2O)o1)[C@@H](CC)N(O)C=O`: the half-maximal inhibitory concentration (IC50) in assay [1] was < 0.126 µM; in assay [2], < 1 µM; on Tolloid-like protein 2, < 0.794 µM; in assay [3], < 3.98 µM; on Tolloid-like protein 1, < 0.398 µM; in assay [4], < 0.2 µM.

Take `CCCCC[C@@H](C(=O)NCNC(=O)c1ccc(-c2cc(OCC(=O)O)cc(C(=O)O)c2O)o1)[C@@H](CC)N(O)C=O`: the half-inhibitory concentration (IC50) is < 0.126 µM in assay [1]; < 1 µM in assay [2]; < 0.794 µM at Tolloid-like protein 2; < 3.98 µM in assay [3]; < 0.398 µM on Tolloid-like protein 1; < 0.2 µM in assay [4].

Regarding `CCCCC[C@@H](C(=O)NCNC(=O)c1ccc(-c2cc(OCCC)cc(C(=O)O)c2)o1)[C@@H](CC)N(O)C=O`, the IC50 in assay [1] was < 0.126 µM; in assay [2], < 1 µM; at Tolloid-like protein 2, < 0.794 µM; in assay [3], < 3.98 µM; at Tolloid-like protein 1, < 0.398 µM; in assay [4] it was < 0.2 µM.

For the compound `CCOc1cc(-c2ccc(C(=O)NCNC(=O)[C@H](CCc3ccc(F)cc3F)[C@@H](CC)N(O)C=O)o2)ccc1C(=O)N[C@@H](CC(=O)O)C(=O)O`, the concentration for half-maximal inhibition (IC50) in assay [1] is < 0.126 µM; in assay [2], < 1 µM; at Tolloid-like protein 2 it was < 0.794 µM; in assay [3], < 3.98 µM; on Tolloid-like protein 1 it was < 0.398 µM; in assay [4], < 0.2 µM.

Turning to `CCCCC[C@@H](C(=O)NCNC(=O)c1ccc(-c2ccc(C(=O)N(CC(=O)O)CC(=O)O)c(OCC)c2)o1)[C@@H](CC)N(O)C=O`, the half-maximal inhibitory concentration (IC50) in assay [1] is < 0.126 µM; in assay [2], < 1 µM; at Tolloid-like protein 2, < 0.794 µM; in assay [3], < 3.98 µM; at Tolloid-like protein 1, < 0.398 µM; in assay [4], < 0.2 µM.
